From paper PMC8583417, “Evaluation of the Antimicrobial Efficacy of N-Acetyl-L-Cysteine, Rhamnolipids, and Usnic Acid—Novel Approaches to Fight Food-Borne Pathogens” (International Journal of Molecular Sciences, 2021)

Columns and labels:
S. aureus 1241 [1] = assay: MIC for planktonic cell growth (A625nm); type: cell-based, Staphylococcus aureus; conditions: ≥80% inhibition, 24 h
Protocol: (§1) Ten concentrations of NAC, RLs, and UA were tested to determine the minimum inhibitory concentration for planktonic growth, and subsequently, the six highest concentrations were applied on preformed biofilms to evaluate the biofilm eradication ability of the compounds. MIC was defined as the lowest substance concentration able to inhibit at least 80% of microbial growth (MICPC80 for planktonic cells, MICBC80 for further growth of biofilm cells), inhibit 80% of metabolic activity (MICBM80 for biofilm metabolic activity, MICMPB80 for metabolic activity of preformed biofilm), prevent biofilm formation by at least 80% (MICBF80 for biofilm formation), or reduce a preformed biofilm by at least 80% (MICBR80 for biofilm reduction). The results of MICs are summarized in Table 1 (planktonic cells) and Table 2 (biofilm-associated cells).
(§2) The determination of MICs was performed according to Chlumsky et al.. Briefly, 96-well flat-bottomed microtiter plates were inoculated with 75 µL (for biofilm formation) or 100 µL (for preformed biofilm) of bacterial suspension (A625nm 0.08 to 0.1) in technical triplicates and were then carefully mixed with the dilution series of the test substances (24 h cultivation at 25 °C for S. Infantis, 37 °C for other strains) or were directly cultivated to preform biofilms (18 h). For a positive control of bacterial growth, the inoculum was mixed with a pure sterile medium. […] To evaluate planktonic cells growth (MICPC80) and further growth of biofilm cells (MICBC80), the optical density of the content of the microtiter plates was measured spectrophotometrically at 625 nm before and after 24 h (for biofilm formation) of cultivation or before and after additional 20 h incubation with the tested compound (for preformed biofilm). […] To evaluate the inhibition of biofilm formation (MICBF80) and reduction in preformed biofilms (MICBR80), biomass was quantified using crystal violet staining, and its metabolic activity (MICBM80 and MICMPB80) was estimated by using the MTT (thiazyl tetrazolium bromide, Sigma-Aldrich, USA) reduction assay, both measured spectrophotometrically at 595 nm.
(§3) All inhibitions were calculated using the formula of Chlumsky et al. below (Equation (1)):(1) A625(595)nm inhibition (%)=A625(595)nm (control) – A625(595)nm(natural substance)/A625(595)nm (control)× 100 where A625(595)nm (control) is the absorbance of bacterial suspension/biofilm itself, and A625(595)nm(natural substance) is the absorbance of the bacterial suspension/biofilm with the added natural substance (NAC, RLs, and UA).
(§4) When the minimum inhibitory concentration could not be determined, the MIC was established as >the highest tested concentration for NAC, RLs, and UA.

S. aureus 816 [2] = assay: MIC for planktonic cell growth (A625nm); type: cell-based, Staphylococcus aureus; conditions: ≥80% inhibition, 24 h
Protocol: as §1, §2, §3, §4

S. aureus 1241 [3] = assay: CLSM analysis, biofilm prevention; type: cell-based, Staphylococcus aureus; conditions: for Thickness (µm) MICBM80 / Thickness (µm) subCBM80: 24 h exposure; for Thickness (µm) MICBM80: substance at its MICBM80, mean ± SD; for Thickness (µm) subCBM80: substance at subinhibitory concentration, mean ± SD
Protocol: (§5) Biofilm prevention and removal analyses were performed using previously determined minimum inhibitory and subinhibitory concentrations for metabolic activity (MICBM80, subCBM80; MICMPB80, subCMPB80) of NAC, RLs, and UA specific for each tested strain. Selected concentrations were used to evaluate the inhibition of biofilm formation (biofilm prevention) and the reduction in previously formed biofilms (biofilm removal) for the same set of microorganisms, with the exception of S. Infantis, which was excluded from the analysis due to its inability to form biofilm in the selected microtiter plate. Biofilm prevention and removal were observed using CLSM with specific staining to distinguish between live and membrane-compromised cells. Images were analyzed to evaluate (i). the total volume of the biomass, (ii). ratios of live and membrane-compromised cells, and (iii). to calculate biofilm volume reduction for individual organisms after the respective treatment types. The total biofilm volume was normalized by the area of the well and expressed as an average biofilm thickness. Complete data are provided in Supplementary Materials (Tables S1–S8).
(§6) For both inhibition and reduction of biofilms, overnight cultures from BHI were diluted in TSB + 1% Glc to reach an absorbance of 0.08 to 0.1 at 625 nm. The inoculum (150 µL) was transferred into wells of the 96-well flat-bottomed Ibidiμ-Plate (Ibidi, Gräfelfing, Germany) and mixed with 150 µL of each of the three tested substances in technical quadruplicates, followed by incubation at 37 °C for 24 h. Simultaneously, the prepared bacterial suspensions were inoculated to an additional microtiter plate (200 µL) and allowed to form biofilm overnight (18 h at 37 °C). After the incubation, the content of the well was drained off, and 200 µL of each of the three tested substances was added to the plate, which was then incubated for an additional 20 h. The used concentrations of the substances represented the subinhibitory and minimum inhibitory concentrations for metabolic activity (subCBM80, MICBM80; subCMPB80, MICMPB80). Both setups contained a positive control of the bacterial growth (inoculum mixed with sterile TSB + 1% Glc medium) and a control monitoring microbial contamination (sterile medium). Non-treated wells were used as a positive control for comparison between non-treated and treated biofilm mass.
(§7) Prior to the imaging, the wells were stained with the LIVE/DEAD® BacLight™ Bacterial Viability Kit (Thermo Fisher Scientific, MA, USA) following the manufacturer’s guidelines and Drago et al.. Briefly, equal volumes of SYTO® 9 and propidium iodide were combined with the sterile distilled water to reach a final concentration of […]. The biofilm mass was stained using 300 µL of the staining solution per well followed by incubation at 37 °C in the dark for 15 min. Stained wells were washed once with sterile distilled water, which was then added to each well (300 µL). Images were acquired with an inverted Leica SP5 CLSM using a 1.25× dry objective (WD 3.7 mm, Z-resolution 27 µm, up to 24 Z-stacks per well) to visualize an entire well. Samples were kept at the cultivation conditions (37 °C, 5% CO2, 90% humidity) with an OkoLabs stage top environmental chamber (Oko Labs, PA, USA). Fluorophore excitation lasers and emission bandwidths were as follows: SYTO® 9 (ex/em 485/498 nm) 488 nm excitation, 495 to 550 nm emission collection; propidium iodide (ex/em 535/617 nm) 561 nm excitation, 595 to 650 nm emission collection. The laser beam scanned the visual field at a frequency of 600 Hz. The wells were captured in snapshots of 1024 × 1024 pixels representing the area of 153.76 mm^2.
(§8) All collected images were statistically evaluated to quantify biovolume utilizing the surface estimation procedure described in Parker et al.. […]

S. aureus 816 [4] = assay: CLSM analysis, biofilm prevention; type: cell-based, Staphylococcus aureus; conditions: for Thickness (µm) MICBM80 / Thickness (µm) subCBM80: 24 h exposure; for Thickness (µm) MICBM80: substance at its MICBM80, mean ± SD; for Thickness (µm) subCBM80: substance at subinhibitory concentration, mean ± SD
Protocol: as §5, §6, §7, §8

L. monocytogenes 164 = assay: CLSM analysis, biofilm prevention; type: cell-based, Listeria monocytogenes; conditions: for Thickness (µm) MICBM80 / Thickness (µm) subCBM80: 24 h exposure; for Thickness (µm) MICBM80: substance at its MICBM80, mean ± SD; for Thickness (µm) subCBM80: substance at subinhibitory concentration, mean ± SD
Protocol: as §5, §6, §7, §8

[5] = 24 h, MIC and subinhibitory concentration

SMILES | MICPC80 (S. aureus 1241 [1]) [µg/mL] | MICPC80 (S. aureus 816 [2]) [µg/mL] | proportion of membrane-compromised cells (S. aureus 1241 [3]; [5]) | Thickness (µm) MICBM80 (S. aureus 1241 [3]) [µm] | Thickness (µm) subCBM80 (S. aureus 1241 [3]) [µm] | Thickness (µm) MICBM80 (S. aureus 816 [4]) [µm] | Thickness (µm) subCBM80 (S. aureus 816 [4]) [µm] | proportion of membrane-compromised cells, increase (L. monocytogenes 164; 24 h, MIC) | Thickness (µm) MICBM80 (L. monocytogenes 164) [µm] | Thickness (µm) subCBM80 (L. monocytogenes 164) [µm] | proportion of membrane-compromised cells (S. aureus 816 [4]; [5])
CC(=O)N[C@@H](CS)C(=O)O [NAC, N-Acetyl-L-cysteine] | 3130 | 3130 | up to 25% | 236 ± 50.5 | 212 ± 16.1 | 104 ± 67.8 | 181 ± 57.7 | about 45% | 158 ± 93.2 | 288 ± 40.6 | –
CC(=O)c1c(O)c(C)c(O)c2c1OC1=CC(=O)C(C(C)=O)C(=O)C12C (single isomer, unassigned; (+)) [UA, (+)-usnic acid] | 0.24 | 0.24 | – | 367 ± 40.5 | 392 ± 21.7 | 237 ± 41.9 | 270 ± 21 | – | 325 ± 70.5 | 417 ± 40.4 | up to 15%
